Tests used:
[1] = below pH 5; cited from earlier work
[2] = test system: Lb. fermentum; test: Wheat mash fermentation contaminated with Lb. fermentum; format: cell-based, Lactobacillus fermentum; settings: Example 5, inoculated 10^7 CFU/mL; Penicillin G 0.25 ppm, Virginiamycin 0.5 ppm, hop products at effective concentration
Method: The clean breed strains were kept frozen at −101.2° F. in MRS-broth containing 8%-glycerol and were inoculated from there in 10 mL cap tubes containing 2 mL MRS-broth. The headspace of each tube was flushed with filter sterilized (0.45 μm pore size membrane filter) CO2-gas and the caps were sealed with paraffin wax coated film. The tubes were incubated in a controlled environmental shaker at 100 rpm at 86° F. (Lb. brevis) and 96.8° F. (Lb. fermentum). After 12 hours 1 mL of these preparatory cultures were each transferred into 10 mL cap tubes containing 9 mL MRS-broth and incubated for another 24 hours, afterwards transferred to 100 mL screw cap flasks containing 90 mL of MRS-broth and again incubated at the appropriate temperature for 24 hours. These portions were transferred to 1 L screw cap flasks, containing 750 mL MRS-broth and were again incubated for 24 hours.
For inoculation of wheat mash the bacterial cells were aseptically harvested in sterile centrifugal tubes by centrifugation at 10,200×g for 15 minutes at 4° C. […]
Cell numbers of the organisms were estimated using a Beck photometer. […] Appropriate quantities of the concentrated cell suspension were added to 500 g quantities of wheat mash in laboratory fermentation flasks to give initial viable cell numbers of 10^7 CFU/mL. […]

[3] = test system: lactobacillus; settings: stated as fact for comparison with ISOHOP; cited from earlier work
[4] = test system: Lb. fermentum; test: Sugar beet molasses wort fermentation contaminated with Lb. fermentum; format: cell-based, Lactobacillus fermentum; settings: 10^6 CFU/mL, Virginiamycin 0.5 ppm
Method: (§1) The clean breed strains were kept frozen at −101.2° F. in MRS-broth containing 8%-glycerol and were inoculated from there in 10 mL cap tubes containing 2 mL MRS-broth. The headspace of each tube was flushed with filter sterilized (0.45 μm pore size membrane filter) CO2-gas and the caps were sealed with paraffin wax coated film. The tubes were incubated in a controlled environmental shaker at 100 rpm at 86° F. (Lb. brevis) respectively 96.8° F. (Lb. fermentum). […] A filter sterilized (0.45 μm pore size membrane filter) 5 μl aliquot of the MRS-cell suspension for inoculation was determined by high performance liquid chromatography using a ProntoSIL 120-3-C18 AQ column which analyzes sugars, organic acids and alcohol, making sure glucose in the MRS-medium would be totally consumed and determining the amount of lactic acid an acetic acid added to fresh wort. Appropriate quantities of cell suspension were added to give a total of 500 g mash in laboratory fermentation flasks and initial viable bacterial cell numbers of 10^6 CFU/mL mash. The pH-value of the wort was afterwards readjusted to pH 5.2 if necessary. […]
(§2) The content of sucrose in beet molasses was determined by polarimeter after clarification with lead acetate. […]

[5] = test system: Lb. brevis; test: Sugar beet molasses wort fermentation contaminated with Lb. brevis; format: cell-based, Lactobacillus brevis; settings: 10^6 CFU/mL, Virginiamycin 0.5 ppm
Method: as §1, §2

For CC1(C)S[C@@H]2[C@H](NC(=O)Cc3ccccc3)C(=O)N2[C@H]1C(=O)O [Penicillin G], the stability [1] is listed as “rather poor stability” and the “viable cells after fermentation, Lb. fermentum” value (“viable cells … Lb. fermentum” for short) [2] is listed as “practically no effect”.
In the case of Virginiamycin, the “reduction of bacteria count” value [3] is given as 50%, the “viable cells … Lb. fermentum” value [4] is given as “no viable cells” and the “viable cells after fermentation, Lb. brevis” value [5] is given as “no viable cells”. For the same compound, the “viable cells … Lb. fermentum” value [2] was 10^3 cells/mL.

Reference: patent US20040044087A1, “Use of hop acids in fuel ethanol production” (priority 1999, published 2004)
